In publication PMC9227077, “Prediction Models for Brain Distribution of Drugs Based on Biomimetic Chromatographic Data” (Molecules, 2022):
Read-outs that look alike come from different tables or passages of the source.

Experiments:
[1] = most values in rats, average if more than one value; cited from earlier work
[2] = set-up: method as in ref 23, 24, 27, 29, 45 (a number printed in a supplementary file, which may have a reference list of its own: not looked up in the article's list); details: 100% aqueous mobile phase, previously obtained in authors' laboratory, cited from earlier work
[3] = brain slice method; cited from earlier work
[4] = Unbound fraction in brain (fu,brain), brain homogenate method; details: Kb from literature fu,brain
Description: However, Kp,uu,brain can be derived from Kp,brain by combining the unbound fraction of the drug in the plasma (fu,p) and in the brain (fu,brain) or the unbound brain volume of distribution, Vu,brain [7]. […] The relevant equations are included in Section 3. Evidently, fu,p is obtained by standard methods for plasma protein binding.
Experimentally determined Kp,brain values for 42 compounds were obtained from the literature and were converted to logBB. They preferably referred to rat studies in order to achieve homogeneity in the data. Experimental fu,brain values were available from the literature for 39 compounds in the dataset. When more than one value was available, the average was calculated. Most values were determined on rats.
The decimal logarithm of Kb, logKb, was used for the development of the models.

[5] = tested on: human serum albumin; set-up: method as in ref 45 (a number printed in a supplementary file, which may have a reference list of its own: not looked up in the article's list); details: pH=7.4, isocratic, 10% acetonitrile; available for 37 compounds, remaining calculated by equation; cited from earlier work
[6] = experimental, cited from earlier work; for logP: octanol-water partition coefficient
[7] = rat brain tissue; cited from earlier work
[8] = cited from earlier work

Structure (SMILES) | fu,brain [1] | logkw IAM ([2]; pH=5.0, PBS) | logkw IAM ([2]; pH=7.4, PBS) | Vu,brain [3] | logKb exper. [4] | logk10,HSA [5] | logP [6] | logD ([6]; pH=5.0, octanol-water) | logD ([6]; pH=7.4, octanol-water) | Kp,uu,brain [7] | logBB exper. ([8]; literature Kp,brain converted to logBB) | Kp,brain ([8]; total brain/total plasma, preferably rat studies)
CN(C)C(=O)Oc1cccc([N+](C)(C)C)c1 [Neostigmine] | 0.950 | -0.08 | 0.37 | 3.20 mL/g brain | 1.270 | -1.91 | -2.16 | -2.16 | -2.16 | – | – | –
CCn1cc(C(=O)O)c(=O)c2cc(F)c(N3CCNCC3)cc21 [Norfloxacin] | 0.580 | – | – | 2.90 mL/g brain | 0.139 | -0.92 | -1.03 | -1.17 | -1.03 | 0.05 | -1.15 | 0.07
